Results on one compound are retold here after patent US20180371018A1, “POLYPEPTIDE COMPOUND, PREPARATION METHOD THEREFOR AND USE THEREOF” (priority 2015, published 2018).

The test system of experiment [1] is Hepatoma 22 (H22) solid tumors. In words: Inhibition of Hepatoma 22 (H22) solid tumors in mice, peptides with different number of copies. The experiment is classed as in vivo, Mus Musculus Balb/c female mice. As to conditions: positive medicine, 20 mg/kg, intraperitoneal injection, 1 time/day, 5 days.
In experiment [2] the test system is Hepatoma 22 (H22) solid tumors. In words: Inhibition of Hepatoma 22 (H22) solid tumors in mice, five-copy peptides. The experiment is classed as in vivo, Mus Musculus Balb/c female mice. The following applies: positive medicine, 20 mg/kg, intraperitoneal injection, 1 time/day, 5 days.

In the case of `O=c1[nH]cc(F)c(=O)[nH]1` [Peptide 5-FU, 5-fluorouracil], in experiment [1], the “Tumor inhibition rate (%)” value came out at 51.62% and the “Tumor weight” value stood at 1.135 ± 0.248 g. Also, in experiment [2], the “Average tumor weight” value is 1.135 ± 0.248 g and the “Tumor inhibition rate (%)” value came out at 51.62%.
